Tests used:
Rhizoctonia solani = assay: Rice sheath blight; assay type: in vivo; parameters: scale not given here; settings: inoculated two days later, rated after 7 days, average of five plants; for Disease Control Rating at 0.5 mg/mL: foliage and soil sprayed with 0.5 mg/mL; for Disease Control Rating at 0.02 mg/mL: foliage and soil sprayed with 0.02 mg/mL; for Disease Control Rating at 0.1 mg/mL: foliage and soil sprayed with 0.1 mg/mL
Procedure, shortened: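 Rice plants 11–15 days old had foliage and soil sprayed with 0.5, 0.1 or 0.02 mg/mL Compound A in water/acetone/Tween 20, then kept in flooded trays. Two days later, rice-grain Rhizoctonia solani inoculum went to plant bases; disease control scored versus untreated after 7 days at 25 °C, high humidity, averaging five plants.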

succinate dehydrogenase = target: T1, succinate dehydrogenase (Botrytis cinerea, UniProt A0A384J5E4+A0A384J8V8+A0A384JHJ5); assay: Enzyme inhibition: succinate dehydrogenase activity in Botrytis cinerea mitochondria (DCPIP reduction); assay type: biochemical; settings: concentration required to inhibit the rate of DCPIP reduction by 50%; Botrytis cinerea isolate Nick mitochondria; read-out: I50 (μM conc.)
T1 construct: succinate-DCPIP reductase assay with KCN
T1 sequence (A0A384J5E4 1-300): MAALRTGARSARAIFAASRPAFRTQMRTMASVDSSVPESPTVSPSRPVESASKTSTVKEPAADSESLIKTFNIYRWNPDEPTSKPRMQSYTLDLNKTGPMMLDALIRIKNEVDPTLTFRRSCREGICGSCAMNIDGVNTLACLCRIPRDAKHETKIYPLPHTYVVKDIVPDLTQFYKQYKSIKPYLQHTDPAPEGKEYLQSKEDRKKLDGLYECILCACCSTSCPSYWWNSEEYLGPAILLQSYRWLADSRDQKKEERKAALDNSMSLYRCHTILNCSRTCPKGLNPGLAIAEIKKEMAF
T1 sequence (A0A384J8V8 1-189): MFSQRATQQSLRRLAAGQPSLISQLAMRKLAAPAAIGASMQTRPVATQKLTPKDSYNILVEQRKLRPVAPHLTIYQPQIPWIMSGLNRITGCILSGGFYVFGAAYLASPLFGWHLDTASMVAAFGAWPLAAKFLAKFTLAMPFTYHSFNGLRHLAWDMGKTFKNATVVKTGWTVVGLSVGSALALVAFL
T1 sequence (A0A384JHJ5 1-192): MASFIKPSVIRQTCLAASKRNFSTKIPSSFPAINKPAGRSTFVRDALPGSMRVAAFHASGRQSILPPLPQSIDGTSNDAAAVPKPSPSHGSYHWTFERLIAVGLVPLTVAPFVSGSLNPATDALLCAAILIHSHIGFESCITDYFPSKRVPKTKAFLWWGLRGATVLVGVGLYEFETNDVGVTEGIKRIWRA
T1 sequence (A0A384K456 1-647 partner): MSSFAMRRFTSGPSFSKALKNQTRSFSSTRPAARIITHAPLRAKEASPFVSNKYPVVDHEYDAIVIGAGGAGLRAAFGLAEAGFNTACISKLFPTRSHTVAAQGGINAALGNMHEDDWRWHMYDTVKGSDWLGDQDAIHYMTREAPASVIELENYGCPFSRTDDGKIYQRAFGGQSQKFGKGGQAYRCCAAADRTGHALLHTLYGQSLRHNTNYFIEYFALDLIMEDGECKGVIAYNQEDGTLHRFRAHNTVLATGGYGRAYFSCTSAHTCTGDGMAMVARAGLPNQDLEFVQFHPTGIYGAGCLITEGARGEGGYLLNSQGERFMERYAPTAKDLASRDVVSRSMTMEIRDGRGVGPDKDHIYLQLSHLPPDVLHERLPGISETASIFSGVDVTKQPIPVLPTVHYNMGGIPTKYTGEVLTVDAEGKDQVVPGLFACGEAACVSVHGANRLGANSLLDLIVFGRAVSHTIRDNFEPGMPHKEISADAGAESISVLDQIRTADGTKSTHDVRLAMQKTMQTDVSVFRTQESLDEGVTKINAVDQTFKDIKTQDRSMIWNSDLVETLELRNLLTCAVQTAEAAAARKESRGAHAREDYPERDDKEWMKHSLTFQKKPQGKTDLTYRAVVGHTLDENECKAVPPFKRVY
Procedure, shortened: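 Crude mitochondria from Botrytis cinerea isolate Nick mycelia, prepared by bead-beating and differential centrifugation, started reactions. SDH activity followed as DCPIP reduction at 600 nm in 50 mM K-phosphate pH 7.2 with 1 mM KCN, 45 μM DCPIP, 17 mM succinate, 1% acetone. I50 from semilog inhibition plots, corrected for succinate-free rates.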

Botrytis cinerea [1] = assay: Eggplant grey mold; assay type: in vivo; parameters: scale not given here; settings: inoculated 24 h later, rated after 3-4 days; for Disease Control Rating at 20 ppm: eggplant sprayed with 20 ppm; for Disease Control Rating at 100 ppm: eggplant sprayed with 100 ppm; for Disease Control Rating at 500 ppm: eggplant sprayed with 500 ppm
Procedure, shortened: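 Protective test: compound formulations (2:3 acetone:water, 0.5% Tween 20; 500, 100 or 20 ppm) sprayed on 14-18-day-old plants, with spore inoculum (4×10^6 spore/mL) applied a day later. Disease control rated on Botrytis lesions after 3-4 days at 23 °C and 100% humidity.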

Botrytis cinerea [2] = assay: Vine grey mold (grape berries); assay type: in vivo; settings: average of six berries, 7-10 days; for pest or weed control at 50 ppm: grape berries treated with 50 ppm, read-out: % DISEASE CONTROL 50 ppm; for pest or weed control at 200 ppm: grape berries treated with 200 ppm, read-out: % DISEASE CONTROL 200 ppm
Procedure, shortened: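 Preventive berry test: compound at 50 or 200 ppm (acetone/water, 0.05% Tween 20) applied one day before inoculation with 10^6 spores/mL Botrytis conidia. After 7-10 days at 20 °C under 12 h light, infected surface area rated; disease control expressed as percent reduction from control mean; repeated-test values averaged.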

Row | SMILES | Disease Control Rating at 0.5 mg/mL (Rhizoctonia solani) | IC50 (succinate dehydrogenase) [µM] | Disease Control Rating at 20 ppm (Botrytis cinerea [1]) | Disease Control Rating at 100 ppm (Botrytis cinerea [1]) | Disease Control Rating at 500 ppm (Botrytis cinerea [1]) | pest or weed control at 50 ppm (Botrytis cinerea [2]) [%] | pest or weed control at 200 ppm (Botrytis cinerea [2]) [%] | Disease Control Rating at 0.02 mg/mL (Rhizoctonia solani) | Disease Control Rating at 0.1 mg/mL (Rhizoctonia solani)
1 | CC1CC=C(c2ccccc2NC(=O)c2cn(C)nc2C(F)F)C1 (stereo not drawn) [Example 149, 1H-pyrazole-4-carboxamide, N-[2-(4-methyl-1-cyclopenten-1-yl)phenyl]-1-methyl-3-(difluoromethyl)-] | 3 | 0.013 | 0 | 0 | 1 | 95 | 100 |  | 
2 | Cn1cc(C(=O)Nc2ccccc2C2=CCCC2(C)C)c(C(F)F)n1 [Example 122, 1H-pyrazole-4-carboxamide, 3-(difluoromethyl)-N-[2-(5,5-dimethyl-1-cyclopenten-1-yl)phenyl]-1-methyl-] | 0 | 0.034 | 1 | 2 | 2 | 67 | 79 |  | 
3 | Cn1cc(C(=O)Nc2ccccc2OC2CCCCC2)c(C(F)F)n1 [Example 22, 1H-pyrazole-4-carboxamide, N-[2-(cyclohexyloxy)phenyl]-3-(difluoromethyl)-1-methyl-] | 0 | 0.0071 |  |  | 0 | 24 | 22 |  | 
4 | Cc1ccc(OC2CCCCC2)c(NC(=O)c2cn(C)nc2C(F)(F)F)c1 [Example 97, 1H-pyrazole-4-carboxamide, N-[2-(cyclohexyloxy)-5-methylphenyl]-1-methyl-3-(trifluoromethyl)-] | 0 | 0.59 | 0 | 0 | 1 | 0 | 1 |  | 
5 | Cn1cc(C(=O)Nc2cc(F)ccc2C2CCCCC2)c(C(F)F)n1 [Example 16, 1H-pyrazole-4-carboxamide, N-(2-cyclohexyl-5-fluorophenyl)-3-(difluoromethyl)-1-methyl-] | 1 | 0.024 |  |  | 1 | 15 | 57 |  | 
6 | Cn1cc(C(=O)Nc2ccc(F)cc2C2(C)CCCCC2)c(C(F)F)n1 [Example 95, 1H-pyrazole-4-carboxamide, 3-(difluoromethyl)-N-[4-fluoro-2-(1-methylcyclohexyl)phenyl]-1-methyl-] | 0 | 0.64 |  |  | 0 | 48 | 26 |  | 
7 | Cc1nn(C)c(F)c1C(=O)Nc1ccccc1C1CCCCCC1 [Example 113, 1H-pyrazole-4-carboxamide, N-(2-cycloheptylphenyl)-5-fluoro-1,3-dimethyl-] | 3 | 0.013 | 1 | 1 | 3 | 28 | 60 | 3 | 3
8 | Cn1cc(C(=O)Nc2ccccc2C=C2CCCCC2)c(C(F)F)n1 [Example 116, 1H-pyrazole-4-carboxamide, N-[2-(cyclohexylidenemethyl)phenyl]-3-(difluoromethyl)-1-methyl-] | 3 | 0.048 | 0 | 0 | 1 | 21 | 68 | 1 | 1

Reference: patent publication US5223526A, “Pyrazole carboxanilide fungicides and use” (Monsanto Company, priority 1992, dated 1993)
